Test results: patent US4975433A, “Aminomethyl derivatives of biologically active substances and enhanced delivery thereof across topical membranes” (priority 1989, dated 1990)
Converted amounts (≈) assume the structure as drawn. “And” between values parts separate entries of the source, which are not always exact repeats. Equal entries are not always repeated. Marks after values point to notes of the source that are not given here. Values belong to the compound of their own block, whether it stands above or below them.

Tests used:
[1] = stability of the bases in water, isopropyl myristate and moisture (NMR, TLC); type: physicochemical; conditions: for degraded at 48 h: isopropyl myristate, atmospheric moisture, room temperature, two days, read-out: decomposition of base prodrugs in IPM filtrates; for qualitative order of stability to atmospheric moisture: IPM solution, NMR; for stability in IPM: 24 hours after sonication for 3 hours
Experimental: All the suspensions or solutions were prepared by sonicating mixtures of the drug or prodrugs in the appropriate solvent in sealed flasks for 3 hr. The sealed solutions or suspensions that resulted were allowed to sit at room temperature for 24 hr, then they were briefly (15 sec.) vortexed and 0.50 ml samples were removed and applied to the membranes (area=4.9 cm^2). After an additional 24 hr the remaining sealed suspensions of the prodrugs were filtered, the filtrates and residues were analyzed by inspection of their NMR spectra and TLC to determine if any decomposition of the prodrugs had taken place (none had), and the filtrates were analyzed by UV spectroscopy to determine if the amount of prodrug still in solution corresponded to the solubilities determined in separate experiments (they did). The filtrates were analyzed neat while the residues were dissolved in CDCl3 and the spectra were analyzed for the appearance of the C8 ---H absorption of theophylline at δ7.77 and the C6 ---H absorption of 5-FU at δ7.7. TLC analyses were run using ether as the eluents. The remaining suspensions of the parent drugs were also filtered and the filtrates were analyzed by UV spectroscopy to determine if the amount of drug still in solution corresponded to the solubilities determined in separate experiments (they did).
The derivatives are not stable in the presence of water. […] NMR experiments also supported the low stability of the derivatives in water. Solutions of the bases were prepared in dry DMSO-d6 and then D2 O was added stepwise to the solutions. […] Similar, decomposition of the bases was also observed in other protic solvents such as methanol and propylene glycol.
On the other hand, the stability of the bases in IPM was variable.
When the IPM filtrates, which were used to determine the IPM solubilities of II and III were exposed to atmospheric moisture at room temperature for two days, 50-80% decomposition of the base prodrugs in solution occurred and precipitation of theophylline resulted as determined by analysis of NMR spectra of the solutions and precipitates. The IPM solutions of the other bases eventually decomposed 1-10% upon prolonged exposure (two weeks) to atmospheric moisture. Although no quantitative data were determined, the qualitative order of stability of the theophylline bases to exposure to atmospheric moisture in IMP solution was V=VI>>IV>III>II,as determined by analysis of NMR spectra of their IPM solutions and precipitates from IPM solutions.

[2] = solubilities of prodrugs and parent drugs in selected solvents (Example 8); conditions: for trend in IPM solubility: NMR of neat filtrates, UV
[3] = lipid and aqueous solubilities of 5-FC and its derivatives; type: physicochemical; conditions: for Solubility, water / solubility: distilled water (pH 5.5), approximate, decomposing; for Solubility, IPM / solubility at 48 h: isopropyl myristate; for Solubility, IPM: 2880 min; for solubility at 48 h: organic solvent or mixture, read-out: Solubility, IPM; for IPM solubility relative to other compound: XIV vs 5-FC molar basis, XIIb vs XIIa
[4] = mouse; for Kp, initial phase: 100000 uM
Experimental: The diffusion experiments were performed in triplicate for each compound. Three female, hairless mice were sacrificed by cervical dislocation, and the entire dorsal skin removed by blunt dissection from the underlying tissues. The skins were secured with a rubber gasket to the diffusion cell, with the dermis in contact with the receptor phase. The receptor side of the cell was filled with isotonic phosphate buffer (pH 73 at 32°, 0.05 M, μ=0.15) with 1% formaldehyde added to inhibit microbial growth. The receptor phase was kept at a constant temperature of 32° and was stirred magnetically.
The donor phases were applied as suspensions (0.5 ml, 0.1 M) to the skin surface. […] Each sample was replaced by an equal amount of fresh buffer.
These last two steps were used to determine the mass balance. This part of the diffusion cell study is termed the first application.
Samples were obtained using the same schedule described above.
The slopes for each phase of the plotted lines were obtained by linear regression analysis (r>0.990); the slopes were then divided by the surface area of the diffusion cells (4.9 cm^2) to obtain a value for flux (J) in mg/cm^2 /h. The reported fluxes are the average flux of the three diffusion cells.

[5] = half-lives of hydrolysis of cytosine and 5-fluorocytosine derivatives in phosphate buffer; conditions: for half-life: phosphate buffer; for pH dependence of hydrolysis rate: basic pH
[6] = lipid and aqueous solubilities of 5-IDC and its prodrugs; type: physicochemical; conditions: for solubility at 48 h: isopropyl myristate, organic solvent or mixture, read-out: Solubility, IPM
Experimental: The approximate aqueous solubilities were determined by the addition of 100 mg of solid to 1 ml distilled water (pH 5.5). Water was added until all the solid dissolved.
The lipid solubilities of 5-iodo-2'-deoxycytidine and its N-Mannich base prodrugs were determined in isopropyl myristate. Three suspensions of the drug or prodrugs were stirred for 48 hours and then filtered. The filtrates were then diluted with either methanol, for the parent drug or dry acetonitrile, for the N-Mannich base prodrugs. The concentration of compound in solution was determined by monitoring the UV absorption at 294 nm (ε=5.79×10^3 1/mole) for 5-IDC, 333 nm (ε=2.46×10^4) for the formamidine derivative and 296 nm for the derivatives. The aqueous solubilities were obtained as described above.

[7] = flux of theophylline in PG after first application of 5-IDC or prodrug (second application); type: in vitro ADME, hairless mice
Experimental: A suspension of theophylline in PG (Th/PG; 0.5 ml, 0.4M) was then applied to each diffusion cell. […] This phase of the diffusion cell experiment is labelled the second application.
The slopes for each phase of the plotted lines were obtained by linear regression analysis; the slopes were then divided by the surface area of the diffusion cells (4.9 cm^2) to obtain a value for flux (J) in mg/cm^2 /h. The reported fluxes are the average flux for the three cells.

[8] = water, pH 7, water, Solubility, water (apparent)
[9] = isopropyl myristate, organic solvent or mixture, Solubility, IPM, stirred at room temperature 24 hr
[10] = isopropyl myristate, organic solvent or mixture, Solubility, IPM, suspensions sonicated for 3 hr
[11] = pH 7.1, Half-life of hydrolysis, 5-FC derivatives
[12] = pH 7.1, Half-life of hydrolysis, cytosine derivatives

Structure (SMILES): CN(C)Cn1cnc2c1c(=O)n(C)c(=O)n2C [II]
degraded at 48 h [1]: 50 to 80%
solubility ([2]; isopropyl myristate, organic solvent or mixture, Solubility, IPM, both sonicated 3 hr and stirred 24 hr): 7600 µg/mL (≈ 32 mM)
solubility [2, 8]: > 100000 µg/mL

Structure (SMILES): CCCN(CCC)Cn1cnc2c1c(=O)n(C)c(=O)n2C [IV, 7-(Dipropylamino)methyltheophylline]
qualitative order of stability to atmospheric moisture [1]: V=VI>>IV>III>II
stability in IPM [1]: stable in solution but the IPM insoluble material was theophylline
trend in IPM solubility ([2]; IPM): III>IV>VI>II>V
solubility [2, 9]: 27600 µg/mL (≈ 94.1 mM)
solubility [2, 8]: > 100000 µg/mL

Structure (SMILES): Cn1c(=O)c2c(ncn2CN2CCCC2)n(C)c1=O [VI, 7-(Pyrrolidyl)methyltheophylline]
qualitative order of stability to atmospheric moisture [1]: V=VI>>IV>III>II
stability in IPM [1]: stable in IPM either in the solid phase or in solution
trend in IPM solubility ([2]; IPM): III>IV>VI>II>V
solubility [2, 10]: 10700 µg/mL (≈ 40.6 mM)
solubility [2, 8]: > 100000 µg/mL

Structure (SMILES): O=c1c(F)cn(CN2CCOCC2)c(=O)n1CN1CCOCC1 [VIII]
solubility [2, 10]: 11800 µg/mL (≈ 35.9 mM)
solubility [2, 8]: > 100000 µg/mL

Structure (SMILES): CCN(CC)Cn1cnc2c1c(=O)n(C)c(=O)n2C [III, 7-(Diethylamino)methyltheophylline]
qualitative order of stability to atmospheric moisture [1]: V=VI>>IV>III>II
stability in IPM [1]: stable in solution but the IPM insoluble material was theophylline
degraded at 48 h [1]: 50 to 80%
trend in IPM solubility ([2]; IPM): III>IV>VI>II>V
solubility [2, 9]: 32500 µg/mL (≈ 122 mM)
solubility [2, 8]: > 100000 µg/mL

Structure (SMILES): O=c1nc(NCN2CCOCC2)ccn1CN1CCOCC1 [IXb, Bis-N^4,1-(4'-morpholinyl)methylcytosine hydrate]
half-life [5, 12]: 9.72 min

Structure (SMILES): Cn1c(=O)c2c(ncn2CN2CCOCC2)n(C)c1=O [V, 7-(4'-Morpholinyl)methyltheophylline]
qualitative order of stability to atmospheric moisture [1]: V=VI>>IV>III>II
stability in IPM [1]: stable in IPM either in the solid phase or in solution
Solubility, water (apparent) ([2]; 1.0 ml water (pH 7.0) added to 100 mg, sonicated 10 sec, not accurate, rapid decomposition): > 100000 µg/mL
trend in IPM solubility ([2]; IPM): III>IV>VI>II>V
solubility [2, 10]: 1300 µg/mL (≈ 4.65 mM)
solubility [2, 8]: ~100000 µg/mL (≈ 358 mM)

Structure (SMILES): O=c1nc(NCN2CCCCC2)ccn1CN1CCCCC1 [VIII, Bis-N^4,1-(1'-piperidinyl)methylcytosine]
half-life [5, 12]: 1.42 min

Structure (SMILES): Cn1c(=O)c2[nH]cnc2n(C)c1=O [I]
solubility ([2]; isopropyl myristate, organic solvent or mixture): 95 µg/mL (≈ 0.527 mM)
solubility ([2]; propylene glycol, organic solvent or mixture): 16200 µg/mL (≈ 89.9 mM)

The next lines start with results.

Solubility, water [3]: 10 mg/ml and 0.03 M
Solubility, IPM ([3]; ±SD): 5.0 (0.9) mg/ml × 10^2
Solubility, IPM [3]: 1.6 M(× 10^4)
Kp, steady-state phase [4]: 1671 cm/h (× 10^3)
half-life [5, 11]: 0.89 min
Structure (SMILES): O=c1nc(NCN2CCCCC2)c(F)cn1CN1CCCCC1 [XIIa, bis-N^4,1-(1'-piperidinyl)methyl-5-fluorocytosine]

half-life [5, 12]: 1 min
Structure (SMILES): CN(C)CNc1ccn(CN(C)C)c(=O)n1 [X, Bis-N^4,1-(dimethylamino)methylcytosine hydrate]

solubility at 48 h [6]: 62 µM
solubility at 48 h ([6]; ±SD): 28 µg/mL
solubility ([6]; pH 5.5, water, apparent): 100000 µg/mL and 222000 µM
X-intercept ([7]; first application in IPM): 1.0 h
Flux of theophylline from PG after first application ([7]; first application in IPM, Th/PG 0.4 M, ±SD): 192 (38) mg/cm^2 /h × 10^3
Structure (SMILES): O=c1nc(NCN2CCCCC2)c(I)cn1[C@H]1C[C@H](O)[C@@H](CO)O1 [XXIIa, N^4-(1"-piperidinyl)methyl-5-iodo-2'-deoxycytidine hydrate]
effect on flux of theophylline ([7]; vs IPM): Not significantly different from flux after first application

solubility [3]: 25000 µg/mL and 80000 µM
solubility at 48 h [3]: 350 µM
solubility at 48 h ([3]; ±SD): 180 µg/mL
Kp, steady-state phase [4]: 213 cm/h (× 10^3)
Kp, initial phase [4]: 73.9 cm/h (× 10^3)
pH dependence of hydrolysis rate [5]: hydrolyzed slower at basic pH
half-life ([5]; pH 6, Half-life of hydrolysis): 1.19 min
half-life [5, 11]: 9.1 min
half-life ([5]; pH 8, Half-life of hydrolysis): 34.2 min
Structure (SMILES): O=c1nc(NCN2CCOCC2)c(F)cn1CN1CCOCC1 [XVI, Bis-N^4,1-(4'-morpholinyl)methyl-5-fluorocytosine hydrate]

IPM solubility relative to other compound [3]: twice
Solubility, water [3]: 25 mg/ml and 0.08 M
Solubility, IPM ([3]; ±SD): 12.0 (0.5) mg/ml × 10^2
Solubility, IPM [3]: 3.7 M(× 10^4)
Kp, steady-state phase [4]: 716 cm/h (× 10^3)
Kp, initial phase [4]: 174 cm/h (× 10^3)
Half-life of hydrolysis, 5-FC derivatives ([5]; pH 7.1 phosphate buffer 0.05 M, 24°): 0.90(0.01) min and 0.90 min
half-life ([5]; pH 6, Half-life of hydrolysis): 0.86 min
half-life ([5]; pH 8, Half-life of hydrolysis): 0.79 min
Structure (SMILES): O=c1nc(NCN2CCCCC2)c(F)cn1CN1CCCCC1 [XIIb, Bis-N^4,1-(1'-piperidinyl)methyl-5-fluorocytosine]

solubility [3]: > 100000 µg/mL and > 300000 µM
solubility at 48 h [3]: 610 µM
solubility at 48 h ([3]; ±SD): 180 µg/mL
pH dependence of hydrolysis rate [5]: faster
half-life ([5]; pH 6, Half-life of hydrolysis): 1.01 min
half-life [5, 11]: 1.05 min
half-life ([5]; pH 8, Half-life of hydrolysis): 0.66 min
Structure (SMILES): O=c1nc(NCN2CCCC2)c(F)cn1CN1CCCC1 [XV, Bis-N^4,1-(1'-pyrrolidyl)methyl-5-fluorocytosine hydrate]

solubility [3]: > 100000 µg/mL and > 300000 µM
solubility at 48 h [3]: 220 µM
solubility at 48 h ([3]; ±SD): 71 µg/mL
Kp, steady-state phase [4]: 919 cm/h (× 10^3)
Kp, initial phase [4]: 67.3 cm/h (× 10^3)
pH dependence of hydrolysis rate [5]: hydrolyzed slower at basic pH
half-life ([5]; pH 6, Half-life of hydrolysis): 20.1 min
half-life [5, 11]: 26.3 min
half-life ([5]; pH 8, Half-life of hydrolysis): 28.5 min
Structure (SMILES): CN1CCN(CNc2nc(=O)n(CN3CCN(C)CC3)cc2F)CC1 [XVII, Bis-N^4,1-(4'-methyl-1'piperazinyl)methyl-5-fluorocytosine hydrate]

half-life [5, 12]: 27.2 min
Structure (SMILES): CN1CCN(CNc2ccn(CN3CCN(C)CC3)c(=O)n2)CC1 [XI, Bis-N^4,1-(4'-methyl-1'-piperazinyl)methylcytosine hydrate]

IPM solubility relative to other compound [3]: approximately 230 times
solubility [3]: > 100000 µg/mL and > 300000 µM
solubility at 48 h [3]: 9100 µM
solubility at 48 h ([3]; ±SD): 2710 µg/mL
half-life [5, 11]: 0.1 min
Structure (SMILES): CCN(CC)CNc1nc(=O)n(CN(CC)CC)cc1F [XIV, Bis-N^4,1-(diethylamino)methyl-5-fluorocytosine hydrate]

solubility [3]: > 100000 µg/mL and > 400000 µM
solubility at 48 h [3]: 950 µM
solubility at 48 h ([3]; ±SD): 230 µg/mL
Kp, steady-state phase [4]: 365 cm/h (× 10^3)
Kp, initial phase [4]: 149 cm/h (× 10^3)
pH dependence of hydrolysis rate [5]: hydrolyzed slower at basic pH
half-life ([5]; pH 6, Half-life of hydrolysis): 0.51 min
half-life [5, 11]: 0.74 min
half-life ([5]; pH 8, Half-life of hydrolysis): 0.87 min
Structure (SMILES): CN(C)CNc1nc(=O)n(CN(C)C)cc1F [XIII, Bis-N^4,1-(dimethylamino)methyl-5-fluorocytosine hydrate]
